Experiment [1] deals with T1, HCV NS3/4A protease complex (BMS strain, genotype 1a) (Hepatitis C virus genotype 1a, UniProt P27958, C1454S).
T1 construct: DNA encoding the recombinant HCV NS3/4A protease complex (amino acids 1027 to 1711) for these strains; inferred from the pET21b vector and Ni-NTA purification; made in house; host or cells: Escherichia coli BL21 (DE3), pET21b
As to the kind of experiment: Recombinant HCV NS3/4A protease complex FRET peptide assay, BMS strain. It counts as biochemical. To be noted: IC50 range, NS3/4A BMS Strain. The essentials:
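Recombinant NS3/4A complex (aa 1027–1711) with C-terminal three-lysine tail, C1711G and C1454S, expressed in E. coli BL21(DE3) and purified by Ni-NTA then Superdex-S200. Inhibition of the complex from each strain measured in vitro by FRET peptide cleavage.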

Experiment [2] relates to HCV replicon in Huh7 cells. Briefly: HCV replicon cell-based assay (FRET). To be noted: Hepatitis C virus, Huh-7; HCV replicon; read-out: EC50 range. The essentials: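 Huh7 cells stably carrying a genotype 1b HCV replicon (IRES-neo-EMCV-IRES-NS3-NS5B) were treated with compound for 4 days at 37 °C in 0.5% DMSO final. Lysates containing 10 μM FRET peptide RET S1 were read kinetically at 340/490 nm to give NS3 protease activity, from which EC50 was derived.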

Some results are limits rather than exact numbers.

T1 sequence (P27958 1658-1714, looked up, stated change not applied): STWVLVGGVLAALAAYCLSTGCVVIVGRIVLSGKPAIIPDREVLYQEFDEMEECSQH
T1 sequence (P27958 1027-1657, looked up, stated change not applied): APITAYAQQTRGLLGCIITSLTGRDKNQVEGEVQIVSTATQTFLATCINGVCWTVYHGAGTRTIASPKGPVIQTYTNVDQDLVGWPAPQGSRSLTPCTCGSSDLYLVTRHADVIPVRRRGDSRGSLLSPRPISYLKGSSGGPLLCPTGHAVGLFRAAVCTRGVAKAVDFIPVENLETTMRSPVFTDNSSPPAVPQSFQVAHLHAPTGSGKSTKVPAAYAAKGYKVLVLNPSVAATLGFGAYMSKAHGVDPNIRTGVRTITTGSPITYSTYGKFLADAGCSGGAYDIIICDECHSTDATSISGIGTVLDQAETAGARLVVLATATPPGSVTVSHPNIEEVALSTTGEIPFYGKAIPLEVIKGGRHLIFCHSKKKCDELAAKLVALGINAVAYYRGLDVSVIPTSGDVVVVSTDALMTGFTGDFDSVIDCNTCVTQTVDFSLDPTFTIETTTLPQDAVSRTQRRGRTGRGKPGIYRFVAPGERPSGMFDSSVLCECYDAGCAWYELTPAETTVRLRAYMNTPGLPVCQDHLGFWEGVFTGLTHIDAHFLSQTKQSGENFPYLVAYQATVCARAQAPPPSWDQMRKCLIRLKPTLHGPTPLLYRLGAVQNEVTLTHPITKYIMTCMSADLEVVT

As to `C=C[C@@H]1C[C@]1(NC(=O)[C@@H]1C[C@@H](Oc2cc(-c3ccccc3)nc3cc(OC)ccc23)CN1C(=O)[C@@H](NC(=O)Oc1cccc(C(F)(F)F)c1)C(C)(C)C)C(=O)NS(=O)(=O)C1(Cc2ccccc2)CC1` [Compound 108], the concentration for half-maximal inhibition (IC50) in experiment [1] fell in the range of 50 to 500 nM. Besides, the concentration for a half-maximal effect (EC50) in experiment [2] was 500 to 5000 nM.

For `C=C[C@@H]1C[C@]1(NC(=O)[C@@H]1C[C@@H](Oc2cc(-c3ccccc3)nc3cc(OC)ccc23)CN1C(=O)[C@@H](NC(=O)CC(C)(C)C)C(C)(C)C)C(=O)NS(=O)(=O)C1(Cc2ccccc2)CC1` [Compound 110], the half-maximal inhibitory concentration (IC50) in experiment [1] fell in the range of 50 to 500 nM. Further, in experiment [2], the EC50 was 50 to 500 nM.

As for `C=C[C@@H]1C[C@]1(NC(=O)[C@@H]1C[C@@H](Oc2cc(-c3ccccc3)nc3cc(OC)ccc23)CN1C(=O)[C@@H](NC(=O)COC)C(C)(C)C)C(=O)NS(=O)(=O)C1(Cc2ccccc2)CC1` [Compound 111], the IC50 in experiment [1] is 50 to 500 nM. In experiment [2], the EC50 lay in the range of 50 to 500 nM.

For the compound `C=C[C@@H]1C[C@]1(NC(=O)[C@@H]1C[C@@H](Oc2cc(-c3ccccc3)nc3cc(OC)ccc23)CN1C(=O)[C@@H](NC(=O)CCOC)C(C)(C)C)C(=O)NS(=O)(=O)C1(Cc2ccccc2)CC1` [Compound 112], in experiment [1], the IC50 was 50 to 500 nM. Moreover, the 50% effective concentration (EC50) in experiment [2] lay in the range of 50 to 500 nM.

In the case of `C=C[C@@H]1C[C@]1(NC(=O)C1C[C@@H](Oc2cc(-c3ccccc3)nc3cc(OC)ccc23)CN1C(=O)[C@@H](NC(=O)[C@@H](OC)c1ccccc1)C(C)(C)C)C(=O)NS(=O)(=O)C1(CC2CC2)CC1` (stereo partly drawn) [Compound 119], in experiment [1], the 50% inhibitory concentration (IC50) is below 50 nM. Moreover, the EC50 in experiment [2] fell in the range of 50 to 500 nM.

In the case of `C=C[C@@H]1C[C@]1(NC(=O)C1CC(Oc2cc(-c3ccccc3)nc3cc(OC)ccc23)CN1C(=O)[C@@H](NC(=O)N(C)C(C)(C)C)C(C)(C)C)C(=O)NS(=O)(=O)C1(CC2CC2)CC1` (stereo partly drawn) [Compound 120], the IC50 in experiment [1] is below 50 nM. The concentration for a half-maximal effect (EC50) in experiment [2] was in the range of 50 to 500 nM.

Consider `CCCC1(S(=O)(=O)NC(=O)[C@@]2(NC(=O)[C@@H]3C[C@@H](Oc4cc(-c5ccccc5)nc5cc(OC)ccc45)CN3C(=O)[C@@H](NC(=O)OC(C)(C)C)C(C)(C)C)CC2C2CC2)CC1` (stereo partly drawn) [Compound 203], for which the 50% inhibitory concentration (IC50) in experiment [1] is below 50 nM. The EC50 in experiment [2] fell in the range of 50 to 500 nM.

`COc1ccc2c(O[C@@H]3C[C@@H](C(=O)N[C@]4(C(=O)NS(=O)(=O)C5(Cc6ccccc6)CC5)CC4C4CC4)N(C(=O)[C@@H](NC(=O)OC(C)(C)C)C(C)(C)C)C3)cc(-c3ccccc3)nc2c1` (stereo partly drawn) [Compound 204]: the 50% inhibitory concentration (IC50) in experiment [1] lay in the range of 50 to 500 nM. Further, in experiment [2], the EC50 lay within 50 to 500 nM.

For the compound `COc1ccc2c(O[C@@H]3C[C@@H](C(=O)N[C@]4(C(=O)NS(=O)(=O)C5(CC6CC6)CC5)CC4C4CC4)N(C(=O)[C@@H](NC(=O)OC(C)(C)C)C(C)(C)C)C3)cc(-c3ccccc3)nc2c1` (stereo partly drawn) [Compound 205], in experiment [1], the 50% inhibitory concentration (IC50) was below 50 nM. Also, the EC50 in experiment [2] lay within 50 to 500 nM.

The values are drawn from patent US6878722B2, “Substituted cycloalkyl P1′ hepatitis C virus inhibitors” (Bristol-Myers Squibb Company, priority 2002, dated 2005).
